Earlier results on one compound are cited in US20090029952A1, “UNIQUE COMBINATION OF […] ACID, ETHYLENEDIAMINE DIHYDROIODIDE (EDDI), AND BUFFER FOR USE IN ANIMAL DRINKING WATER” (priority 2007, published 2009).

With `CC(=O)Oc1ccccc1C(=O)O` [aspirin, acetylsalicylic acid], the “maximum solubility of aspirin alone in water” value (alone in water, or in the presence of sodium acetate or sodium diacetate) is on record as 0.1 % by weight. In addition, for the setting “water, from chemical handbooks”, the solubility in water was 0.1%.
